Measured values published in article PMC5033673 (Cancer research, 2016).

Target: MutSα (MSH2/MSH6 heterodimer) (Homo sapiens, UniProt P43246+P52701)
Assay: Biacore SPR
Type: binding

Chain of MutSα (MSH2/MSH6 heterodimer) (P43246 2-934): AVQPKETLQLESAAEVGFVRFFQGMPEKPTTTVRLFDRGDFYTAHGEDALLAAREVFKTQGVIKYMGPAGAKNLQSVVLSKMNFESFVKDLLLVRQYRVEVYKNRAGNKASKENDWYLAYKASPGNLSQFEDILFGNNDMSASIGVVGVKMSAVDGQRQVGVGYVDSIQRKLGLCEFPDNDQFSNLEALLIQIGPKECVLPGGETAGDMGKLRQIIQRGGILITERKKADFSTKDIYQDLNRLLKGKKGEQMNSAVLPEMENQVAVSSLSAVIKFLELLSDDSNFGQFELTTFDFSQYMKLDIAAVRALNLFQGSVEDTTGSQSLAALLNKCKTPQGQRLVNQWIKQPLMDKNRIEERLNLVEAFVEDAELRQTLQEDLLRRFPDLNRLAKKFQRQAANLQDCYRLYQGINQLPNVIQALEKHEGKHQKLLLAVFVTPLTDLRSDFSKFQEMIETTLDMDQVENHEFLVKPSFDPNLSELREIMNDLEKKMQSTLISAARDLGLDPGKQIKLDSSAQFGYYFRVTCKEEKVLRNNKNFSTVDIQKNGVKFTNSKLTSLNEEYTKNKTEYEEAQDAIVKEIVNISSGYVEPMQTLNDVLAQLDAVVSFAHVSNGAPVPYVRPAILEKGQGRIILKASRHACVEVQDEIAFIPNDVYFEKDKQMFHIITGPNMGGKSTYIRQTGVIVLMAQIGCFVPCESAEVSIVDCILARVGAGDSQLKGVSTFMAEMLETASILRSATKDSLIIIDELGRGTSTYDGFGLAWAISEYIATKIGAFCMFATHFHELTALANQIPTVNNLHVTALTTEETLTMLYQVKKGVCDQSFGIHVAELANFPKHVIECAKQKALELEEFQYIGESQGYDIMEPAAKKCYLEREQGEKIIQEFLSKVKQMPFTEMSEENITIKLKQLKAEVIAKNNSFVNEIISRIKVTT
Chain of MutSα (MSH2/MSH6 heterodimer) (P52701 whole entry): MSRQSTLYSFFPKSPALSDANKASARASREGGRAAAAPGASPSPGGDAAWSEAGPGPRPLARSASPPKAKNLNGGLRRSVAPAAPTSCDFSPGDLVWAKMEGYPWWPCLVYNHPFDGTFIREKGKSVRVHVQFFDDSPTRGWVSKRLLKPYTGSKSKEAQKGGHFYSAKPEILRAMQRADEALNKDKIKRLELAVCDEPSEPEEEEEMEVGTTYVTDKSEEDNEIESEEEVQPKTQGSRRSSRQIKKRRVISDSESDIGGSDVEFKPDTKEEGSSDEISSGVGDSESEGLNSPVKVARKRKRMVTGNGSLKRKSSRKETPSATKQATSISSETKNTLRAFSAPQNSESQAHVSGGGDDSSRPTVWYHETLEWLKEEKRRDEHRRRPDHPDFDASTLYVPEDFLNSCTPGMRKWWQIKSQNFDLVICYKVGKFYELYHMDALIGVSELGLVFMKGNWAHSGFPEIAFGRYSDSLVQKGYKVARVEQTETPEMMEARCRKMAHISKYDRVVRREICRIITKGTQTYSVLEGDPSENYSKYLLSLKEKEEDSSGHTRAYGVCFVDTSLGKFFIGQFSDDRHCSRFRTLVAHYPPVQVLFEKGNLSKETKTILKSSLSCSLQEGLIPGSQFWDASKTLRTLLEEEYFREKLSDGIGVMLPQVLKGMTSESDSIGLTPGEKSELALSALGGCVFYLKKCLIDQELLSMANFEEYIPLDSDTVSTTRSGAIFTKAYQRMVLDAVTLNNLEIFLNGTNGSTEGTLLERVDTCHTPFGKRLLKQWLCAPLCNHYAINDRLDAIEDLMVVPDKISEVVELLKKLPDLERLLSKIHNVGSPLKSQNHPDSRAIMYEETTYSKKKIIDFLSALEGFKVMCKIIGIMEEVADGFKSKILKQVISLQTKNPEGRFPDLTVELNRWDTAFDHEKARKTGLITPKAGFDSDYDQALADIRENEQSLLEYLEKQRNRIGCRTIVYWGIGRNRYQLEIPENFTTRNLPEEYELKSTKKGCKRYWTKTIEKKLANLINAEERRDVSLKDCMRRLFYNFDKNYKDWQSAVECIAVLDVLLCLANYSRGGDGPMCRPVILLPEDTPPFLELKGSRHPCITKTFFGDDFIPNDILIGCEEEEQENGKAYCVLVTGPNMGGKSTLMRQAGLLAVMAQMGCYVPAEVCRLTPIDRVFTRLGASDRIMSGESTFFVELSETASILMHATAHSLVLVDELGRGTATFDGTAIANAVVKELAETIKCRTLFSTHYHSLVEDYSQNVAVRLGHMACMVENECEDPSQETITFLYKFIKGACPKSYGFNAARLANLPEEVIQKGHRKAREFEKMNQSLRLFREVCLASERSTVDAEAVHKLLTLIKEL

## O=c1cc(-c2ccccc2)oc2cc(O)c(O)c(O)c12 [baicalein, 5,6,7-trihydroxyflavone]
  Kd: ~32.2 µM
